Measured values as given in publication PMC8072580, “Predicting Pharmacokinetic Properties of Potential Anticancer Agents via Their Chromatographic Behavior on Different Reversed Phase Materials” (International Journal of Molecular Sciences, 2021).

How the values were obtained:
[1] = Micellar liquid chromatography (MLC), ODS-2 column, Brij 35 effluent: chromatographic lipophilicity; assay type: physicochemical; details: pH 7.4, ODS-2 column, 25 °C
Source text: There are several theories that describe the effect of the concentration of the surfactant in the effluent on the retention of the solute in MLC [23]. The following Foley’s equation is best known in lipophilicity studies:(2) 1/k=1/km+KAM/km[M] where [M] is the total concentration of the surfactant in the mobile phase minus CMC; KAM is the constant that describes solute-micelle binding; and km is the solute retention parameter at the micellar concentration of zero, i.e., when the concentration of the surfactant monomer is equal to CMC. The KAM and km parameters can be evaluated from the slope and intercept of the experimental 1/k vs. [M] relationships.
Equation (2) describes a linear dependence between decreasing retention and increasing micelle concentration. This equation is valid for aqueous solutions of surfactant or mobile phases with the same concentrations of the organic modifier. The micellar retention parameter, log km, is considered analogous to the log kw parameter evaluated in RPLC. According to the information presented above, this parameter is considered to be a lipophilicity descriptor, and Equation (2) is a simple way to indirectly determine the lipophilic properties of compounds. It is postulated that retention in micellar chromatography depends on hydrophobic (lipophilic), electronic, and steric features of the compounds in a similar way as has been noted concerning pharmacokinetic phenomena. The additional similarity results from the fact that the phospholipids, cholesterol, fatty acids, and triglycerides included in the extracellular and intracellular fluids also form micelles with proteins.
In our investigations, the micellar retention factors were used to calculate the log km parameters using Equation (2) (Table 2). For all of the compounds 1-19, the relationships of 1/k vs. [M] were obtained with very good linearity, confirming that Foley’s equation correctly describes the effect of the concentration of the surfactant in the effluent on the retention of the solute. In our studies, the micellar log km parameters for three pharmacologically active sets of compounds 1-6, 7-14, and 15-19 and the log k factors for solutes 15-19 obtained on IAM and end-capped ODS stationary phases were determined experimentally. All these retention factors, together with the log kw values for compounds 1-14 obtained in our earlier investigations on IAM and end-capped ODS stationary phases, were used as lipophilicity descriptors in the QSARs methodology to predict the pharmacokinetic descriptors of the compounds that were tested.
Shimadzu Vp (Shimadzu, Izabelin, Polska) liquid chromatographic system was used in HPLC measurements. It was equipped with an LC 10AT pump, SPD 10A UV–Vis detector, SCL 10A system controller, CTO-10 AS chromatographic oven, and Rheodyne injector valve with a 20 μL loop. As the stationary phases, 3 different revered-phase materials were applied: Spherisorb ODS-2 column, 125 × 4 mm i.d., 5 μm (Merck, Lublin, Poland), Regis IAM.PC.DD2 column, 100 × 4.6 mm i.d., 10 μm (Morton Grove, Illinois, USA), and Purosphere RP-18e column, 125 × 4 mm i.d., 5 μm (Merck, Lublin, Poland).
In the MLC technique with an ODS-2 column, buffered Brij 35 mixtures (0.15; 0.125, 0.10, and 0.075 mol/L) with 7% (v/v) addition of isopropanol were used as mobile phases. The buffer was prepared from 0.01 mol/L solutions of Na2HPO4 and citric acid, and the pH 7.4 value was fixed before mixing with an organic modifier. The flow rate was 1 mL/min. Buffered acetonitrile mixtures were used as effluents with the IAM column. Acetonitrile concentration, expressed as a volume fraction, was changed in the range of 0.2–0.5, with the constant step of 0.1. The flow rate was 1.3 mL/min. Acetonitrile concentration was changed in the range of 0.3–0.6 with the RP-18e column, with the constant step of 0.1 and flow rate of 0.1 mL/min. As solutes tested there were used 19 newly designed structurally related compounds. […]

[2] = design: method as in PMID 31864156; details: IAM.PC.DD2 column, buffered acetonitrile; cited from earlier work
[3] = design: method as in PMID 31864156; details: end-capped ODS column, aqueous acetonitrile; cited from earlier work
[4] = test system: human cancer cells; design: method as in PMID 31864156, PMID 16545495, PMID 25528370; details: cited from earlier work
[5] = 0.075 M Brij 35, 7% isopropanol
[6] = 0.125 M Brij 35, 7% isopropanol

Row | Structure (SMILES) | k (MLC retention factor) [1, 5] | k (MLC retention factor) ([1]; 0.1 M Brij 35, 7% isopropanol) | k (MLC retention factor) [1, 6] | k (MLC retention factor) ([1]; 0.15 M Brij 35, 7% isopropanol) | log kw,IAM [2] | log kw,ODS [3] | antiproliferative effects in cancer cells compared with normal cells [4]
1 | O=c1c(C(F)(F)F)nnc2n1CCN2c1cccc(Cl)c1 [Compound 12] | 36.90 | 29.09 | 22.17 | 19.83 | 1.66 [19] | 2.43 [19] | 
2 | CC(C)c1nnc2n(c1=O)CCN2c1ccc(Cl)c(Cl)c1 [Compound 6] | 60.81 | 46.76 | 34.01 | 29.82 | 1.67 [19] | 2.68 [19] | 
3 | Cc1ccc(N2CCn3c2nnc(C(C)C)c3=O)cc1 [Compound 2] | 25.51 | 21.45 | 18.25 | 17.34 | 1.05 [19] | 2.01 [19] | 
4 | CC(C)c1nnc2n(c1=O)CCN2c1ccccc1 [Compound 1] | 13.73 | 12.03 | 10.47 | 10.53 | 0.76 [19] | 1.59 [19] | 
5 | Cc1ccc(N2CCn3c2nnc(C(F)(F)F)c3=O)cc1 [Compound 9] | 25.67 | 21.44 | 17.64 | 16.14 | 1.25 [19] | 2.16 [19] | 
6 | COc1ccccc1N1CCn2c1nnc(C(F)(F)F)c2=O [Compound 10] | 5.89 | 5.40 | 5.04 | 4.79 | 0.67 [19] | 1.65 [19] | clearly higher antiproliferative effects in cancer cells than in normal cells
7 | O=c1c(C(F)(F)F)nnc2n1CCN2c1ccc(Cl)cc1 [Compound 13] | 41.71 | 32.28 | 25.32 | 22.45 | 1.58 [19] | 2.40 [19] | 
8 | CC(C)c1nnc2n(c1=O)CCN2c1ccccc1Cl [Compound 3] | 8.98 | 8.18 | 7.46 | 7.20 | 0.65 [19] | 1.42 [19] | 
9 | O=c1c(C(F)(F)F)nnc2n1CCN2c1ccccc1Cl [Compound 11] | 10.61 | 9.36 | 8.27 | 7.66 | 0.88 [19] | 1.86 [19] | clearly higher antiproliferative effects in cancer cells than in normal cells
10 | O=c1c(C(F)(F)F)nnc2n1CCN2c1ccc(Cl)c(Cl)c1 [Compound 14] | 59.61 | 44.28 | 32.68 | 28.56 | 2.29 [19] | 2.96 [19] | 
11 | CC(C)c1nnc2n(c1=O)CCN2c1ccc(Cl)cc1 [Compound 5] | 41.53 | 33.76 | 26.18 | 24.10 | 1.39 [19] | 2.32 [19] | 
12 | CC(C)c1nnc2n(c1=O)CCN2c1cccc(Cl)c1 [Compound 4] | 39.84 | 31.65 | 24.39 | 22.52 | 1.49 [19] | 2.38 [19] | 
